The data set in a line: Solubility of Compound A in mediums with various pHs. The class given is physicochemical. The conditions noted are these: mediums with various pHs including water (Fig. 4). The text has this: Thus, as shown in Fig. 5 in the results of the dissolution test of the tablets prepared by a conventional means employed for formulation of preparations, such as mixing Compound A with lactose, corn starch, etc. for granulation, adding talc, magnesium stearate, etc. and compressing same, the dissolution property is not entirely satisfactory, reflecting the properties of the compound per se.
Fig. 1 is a graph showing the results of the dissolution test of the fine granules of Reference Example 1 and Example 1 in the 1st fluid and the 2nd fluid, Fig. 2 is a graph showing the results of the dissolution test of the tablets of Reference Example 2 and Example 2 in the 1st fluid and the 2nd fluid, Fig. 3 is a graph showing the results of the dissolution test of the fine granules of Reference Example 1 and Example 3 in the 1st fluid and the 2nd fluid, Fig. 4 is a graph showing the solubilities of Compound A in mediums with various pHs, and Fig. 5 is a graph showing the results of the dissolution test of the tablets prepared by the conventional formulation methods in the 1st fluid and the 2nd fluid.

Consider `O=c1cc2c(nn1-c1ccc(Cl)cc1)-c1ccccc1[S+]([O-])CC2` (stereo not shown) [Compound A, 2-(4-chlorophenyl)-5,6-dihydro-(1)benzothiepino[5,4-c]pyridazine-3(2H)-one 7-oxide], for which the solubility result is reported as “slightly soluble”.

The values above are taken from patent publication EP0487768A1, “Pharmaceutical composition with improved dissolution property” (YOSHITOMI PHARMACEUTICAL INDUSTRIES, LTD., priority 1990, dated 1992).
